Experimental data published in ChEMBL document CHEMBL1201862, “PubChem BioAssay data set” (2004).
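Cells were grown in 96-well plates and exposed to each compound for 48 hours at five concentrations; endpoints were interpolated linearly between bracketing concentrations, or set to the highest concentration if not reached. GI50: concentration for 50% inhibition of growth.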 Active and inactive are the calls of the source. Cut-off read from the data, not from the text of the source: active = GI50 up to about 1.1 µM and inactive = higher. Bridge positions count the residues as written; N and C are the ends. Square brackets hold non-standard residues; d marks the D form. Peptide text beside a SMILES is read from it. * marks the point of attachment. Cbz = O=C(OCc1ccccc1)*; Dab = NCC[CH](N)C(=O)O; Bn = c1ccc(C*)cc1

Key:
Experiment in all cases: NCI anticancer screen, dose series, 48 h
[1] = system: COLO 205
[2] = system: CAKI-1
[3] = system: ACHN
[4] = system: DU-145
[5] = system: HL-60
[6] = system: SF-539
[7] = system: SW-620
[8] = system: NCI-H460
[9] = system: KM12
[10] = system: SR
[11] = system: CCRF-CEM
[12] = system: RPMI-8226
[13] = system: RXF 393
[14] = system: UACC-62
[15] = system: LOX IMVI
[16] = system: MCF7
[17] = system: NCI-H226
[18] = system: NCI-H522
[19] = system: HOP-62

Measured: GI50

CCOP(=O)(OCC)/C(C#N)=C/c1ccccn1
inactive: [1] > 100 µM | [2] > 100 µM | [3] > 100 µM | [4] > 100 µM | [5] > 100 µM | [6] > 100 µM | [7] > 100 µM | [8] > 100 µM | [9] > 100 µM | [10] > 100 µM | [11] > 100 µM | [12] > 100 µM | [13] > 100 µM | [14] > 100 µM | [15] > 100 µM | [16] > 100 µM | [17] > 100 µM | [18] > 100 µM | [19] > 100 µM

CC(C)CC1NC(=O)C(Cc2ccccc2)NC(=O)C(Cc2ccccc2)NC(=O)C(NC(=O)C(Cc2ccc(OCc3ccccc3)cc2)NC(=O)OCc2ccccc2)CCNC1=O (configuration not stated) (Cbz-Y(Bn)[Dab]FFL; lactam 2-C; configuration not given here)
inactive: [1] > 100 µM | [2] > 100 µM | [3] > 100 µM | [4] > 100 µM | [5] > 100 µM | [6] > 100 µM | [7] > 100 µM | [8] 35.1 µM | [9] 64.7 µM | [10] 63.1 µM | [11] 33.7 µM | [12] > 100 µM | [13] > 100 µM | [14] 8.47 µM | [15] > 100 µM | [16] 38.8 µM | [17] > 100 µM | [18] 23 µM | [19] > 100 µM

CC1CC(c2ccc([N+](=O)[O-])cc2)=Nc2ccccc2S1 (configuration not stated)
inactive: [1] 24 µM | [2] 24.4 µM | [3] 19.7 µM | [5] 7.45 µM | [6] 16.9 µM | [7] 15.6 µM | [8] 27.1 µM | [9] 12.6 µM | [10] 5.09 µM | [11] 4.32 µM | [12] 2.3 µM | [13] 17.5 µM | [14] 14 µM | [15] 6.89 µM | [17] 23.2 µM | [18] 20.3 µM | [19] 44.9 µM

C/C(=N\N(C)C)C(CN1CCCCC1)C(c1ccccc1)c1c(O)c2ccccc2oc1=O (configuration not stated)
inactive: [1] > 100 µM | [2] > 100 µM | [3] > 100 µM | [5] > 100 µM | [6] > 100 µM | [7] > 100 µM | [8] > 100 µM | [9] > 100 µM | [10] > 100 µM | [11] > 100 µM | [12] > 100 µM | [13] > 100 µM | [14] 80.4 µM | [15] > 100 µM | [17] 37.5 µM | [18] > 100 µM | [19] > 100 µM
